What was measured:
[1] = system: MX-1 human breast carcinoma xenograft; experiment: tumor growth delay, MX-1 xenograft, single-cycle dosing (Example 3); conditions: 3 mg/kg/day x 5 days intravenous
Procedure: Test articles were administered on the day of pair matching, Day 1.
The upper limit of acceptability is 20% weight loss.

[2] = systemic toxicity / MTD of free doxorubicin versus conjugate on a molar basis (separate study); assay type: in vivo, mice
[3] = system: MX-1 human breast carcinoma xenograft; experiment: tumor growth delay, MX-1 xenograft, two-cycle dosing (Example 11); conditions: 2-cycle
Procedure: The following procedure was used to investigate the tumor growth delay effects of the conjugate, particularly for the treatment of MX-1 human breast carcinoma xenograft in athymic mice using a two-cycle dosing regimen. Female nude Harlan mice are implanted subcutaneously with 1 mm^3 MX 1 solid tumor fragments in the flank. During the pre-dose phase of implantation and growth, tumors are initially monitored twice weekly, and then daily as the neoplasms approach the desired size of 80-120 mg. When the majority of tumors reached the targeted weight range (80-120 mg), mice are pair-matched into 5 treatment groups of 10 mice each. For purposes of this illustrationon the effect of 2-cycles of treatment, data from 3 groups are shown: no treatment, 3 mg/kg/day (days 1-5, 21-25) intravenous Doxorubicin and 24 mg/kg/day (days 1-5, 21-25) intravenous bioconjugate. Test article administration began on this day, referred to as Day 1. The tumor growth delay endpoint is reached when the tumor on the mouse reaches 1.5 gm weight estimated by the formula: Tumor weight (mg)=w^2×l/2×1 mg/mm^3, where w=width (mm) and l=length (mm) of the tumor. The median time to endpoint is calculated for each treatment group.

For `COc1cccc2c1C(=O)c1c(O)c3c(c(O)c1C2=O)C[C@@](O)(C(=O)CO)C[C@@H]3O[C@H]1C[C@H](N)[C@H](O)[C@H](C)O1` [Doxorubicin, doxorubicin, reference compound], the “median delay in tumor growth (median time to endpoint, tumor 1.5 gm)” value [1] was 39.5 days, the “treatment or nontreatment related deaths” value [1] was “no other treatment or nontreatment related deaths” and the “long-term, tumor-free survivors” value ([1]; 10 mice) was “no long-term, tumor-free survivors”. The “partial or complete tumor regressions” value ([1]; 10 mice) was “no partial or complete tumor regressions”, the “lethality at the same high molar dose” value ([2]; free doxorubicin at the same high molar dose as the conjugate) was “mice were killed by the free doxorubicin” and the “MTD lower than for the conjugate on a molar basis” value ([2]; separate study) was “at least 2.3 times”. For the same compound, the “time to endpoint longer than control mice” value ([3]; 3 mg/kg/day (days 1-5, 21-25) intravenous) was “at least 44 days”, the “treatment or nontreatment related deaths” value ([3]; 3 mg/kg/day intravenous) was “no treatment or nontreatment related deaths” and the “long-term, tumor-free survivors” value ([3]; 3 mg/kg/day intravenous, at 71 days) was “significant percentage”.
